Data as given in PMC8318587, “Structure-guided microbial targeting of antistaphylococcal prodrugs” (eLife, 2021).

Tests used:
human sera = test: Esterase substrate specificity, fluorogenic SAR library kinetics in serum; type: in vitro ADME
Experimental: (§1) Kinetic measurements were performed according to [White et al., 2018] with minor variation. Lyophilized human and mouse sera were resuspended according to manufacturer instructions in highly pure, filtered water at protein concentrations of 85 mg/mL and 70 mg/mL, respectively. One milliliter of resuspended serum was added to a 24 mL mastermix for a final concentration of 31.25 mM Tris pH 7.5, 312.5 mM NaCl, 1.25 mM MgCl2, 12.5% glycerol, and 3.4 mg/mL or 2.8 mg/mL protein for human and mouse serum, respectively. For purified proteins, 5 mL of a 75 µg/mL stock was added to yield a 20 mL mastermix containing 31.25 mM Tris pH 7.5, 312.5 mM NaCl, 1.25 mM MgCl2, 12.5% glycerol, and 18.75 µg/mL protein. Mastermix was stored on ice when not in use. Twenty microliters of mastermix was transferred to a black, 96-well half area microplate (Corning, CLS3993) and prewarmed at 37°C. Fluorogenic substrates were prepared as 10 mM stock solutions in 100% DMSO and were diluted in water to a starting concentration of 500 µM. Enzyme catalyzed substrate hydrolysis was initiated by addition of 5 µL substrate dilution in technical duplicate to the prewarmed serum or protein solution. Final assay concentrations were as follows: 25 mM Tris pH 7.5, 250 mM NaCl, 1 mM MgCl2, 10% glycerol, and protein at a concentration of 2.72 mg/mL (human serum), 2.24 mg/mL (mouse serum), or 15 µg/mL (FrmB, GloB). The resulting change in fluorescence (λex = 485 nm, λem = 520 nm) was followed for 15 min at 37°C, collecting data every 30 s on a FLUOstar Omega microplate reader (BMG Labtech). Fluorescence measurements were converted to molar concentrations using a fluorescein standard curve (2.5 nmol–0.6 pmol). The initial rates of reaction were measured three independent times with two technical replicates per measurement and fit to a line using GraphPad Prism (GraphPad Software, La Jolla, CA). Initial rates of reaction were plotted versus the concentration of substrate and fit to a standard Michaelis–Menten equation (v = Vmax[S]/(Km + [S])), yielding estimates of Vmax and Km. Values for kcat and kcat/Km were calculated based on amount of enzyme added when purified enzymes were used.

mouse sera = test: as above; type: in vitro ADME
Experimental: as §1

SaFrmB = biological target: T1, SaFrmB (Staphylococcus aureus, UniProt A0A0H3KFB7); test: Esterase substrate specificity, fluorogenic SAR library kinetics; type: biochemical; conditions: for kcat/kuncat: SaFrmB; for Km: SaFrmB 15 µg/mL, pH 7.5, 37°C
T1 construct: made in house; host or cells: E. coli BL21 (DE3)
T1 sequence (A0A0H3KFB7 1-253): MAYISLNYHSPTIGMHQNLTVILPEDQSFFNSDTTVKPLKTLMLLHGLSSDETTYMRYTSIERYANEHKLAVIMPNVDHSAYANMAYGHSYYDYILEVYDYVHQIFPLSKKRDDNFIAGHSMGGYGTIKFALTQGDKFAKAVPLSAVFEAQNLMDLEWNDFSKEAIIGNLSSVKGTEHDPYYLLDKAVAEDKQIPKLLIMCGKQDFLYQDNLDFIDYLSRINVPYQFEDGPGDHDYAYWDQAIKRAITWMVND
Experimental: as §1

SaGloB = biological target: T2, SaGloB (Staphylococcus aureus, UniProt P0DY75); test: as above; type: biochemical; conditions: SaGloB; for kcat/kuncat: normalised to uncatalysed hydrolysis rate; for Km: fluorogenic ester substrate
T2 sequence (P0DY75 1-207): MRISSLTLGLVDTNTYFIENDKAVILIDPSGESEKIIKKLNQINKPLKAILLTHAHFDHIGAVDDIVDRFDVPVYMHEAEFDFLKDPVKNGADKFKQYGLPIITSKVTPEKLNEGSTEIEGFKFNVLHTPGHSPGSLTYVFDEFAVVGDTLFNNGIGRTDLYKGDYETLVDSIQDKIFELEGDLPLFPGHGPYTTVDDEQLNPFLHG
Experimental: as §1

SMILES | Km (human sera) [µM] | Vmax (human sera) [pmol*min-1*mg sera-1] | Km (mouse sera) [µM] | kcat/kuncat (SaFrmB) | kcat/kuncat (SaGloB) | Km (SaFrmB) [µM] | Km (SaGloB) [µM] | Vmax (mouse sera) [pmol*min-1*mg sera-1]
CCCOCC(=O)OCOc1ccc2c(c1)Oc1cc(OCOC(=O)COCCC)ccc1C21OC(=O)c2ccccc21 [3O] | 22.2 | 11.7 | > 50 | 0.911 103 | 4.91 103 | – | – | –
CCC(C)C(=O)OCOc1ccc2c(c1)Oc1cc(OCOC(=O)C(C)CC)ccc1C21OC(=O)c2ccccc21 (stereo not drawn) [7C] | 64.2 | 0.441 | > 50 | – | – | > 50 | > 50 | –
CCC(OC)C(=O)OCOc1ccc2c(c1)Oc1cc(OCOC(=O)C(CC)OC)ccc1C21OC(=O)c2ccccc21 (stereo not drawn) [9O] | 112 | 4.35 | > 50 | – | 14.6 103 | > 50 | – | –
CC(C)SCC(=O)OCOc1ccc2c(c1)Oc1cc(OCOC(=O)CSC(C)C)ccc1C21OC(=O)c2ccccc21 [6S] | > 50 | – | > 50 | 2.44 103 | 12.9 103 | – | – | –
CCCC(C)C(=O)OCOc1ccc2c(c1)Oc1cc(OCOC(=O)C(C)CCC)ccc1C21OC(=O)c2ccccc21 (stereo not drawn) [8C] | > 50 | – | > 50 | – | 79.1 103 | > 50 | – | –
CSCCC(=O)OCOc1ccc2c(c1)Oc1cc(OCOC(=O)CCSC)ccc1C21OC(=O)c2ccccc21 [4S] | 27.9 | 3.81 | > 50 | 1.40 103 | – | – | > 50 | –
CCCCC(=O)OCOc1ccc2c(c1)Oc1cc(OCOC(=O)CCCC)ccc1C21OC(=O)c2ccccc21 [2C] | 71.5 | 0.356 | > 50 | 4.74 103 | 17.2 103 | – | – | –
C=CCOC(C)C(=O)OCOc1ccc2c(c1)Oc1cc(OCOC(=O)C(C)OCC=C)ccc1C21OC(=O)c2ccccc21 (stereo not drawn) [12O] | 42.2 | 4.00 | > 50 | – | 1.28 103 | > 50 | – | –
CCSC(C)C(=O)OCOc1ccc2c(c1)Oc1cc(OCOC(=O)C(C)SCC)ccc1C21OC(=O)c2ccccc21 (stereo not drawn) [8S] | > 50 | – | > 50 | – | 9.01 103 | > 50 | – | –
COC(C)(C)C(=O)OCOc1ccc2c(c1)Oc1cc(OCOC(=O)C(C)(C)OC)ccc1C21OC(=O)c2ccccc21 [10O] | 63.3 | 1.46 | > 50 | 4.97 103 | – | – | > 50 | –
CCCC(=O)OCOc1ccc2c(c1)Oc1cc(OCOC(=O)CCC)ccc1C21OC(=O)c2ccccc21 [1C] | 36.2 | 1.06 | > 50 | 7.99 103 | 21.2 103 | – | – | –
COC(C)C(=O)OCOc1ccc2c(c1)Oc1cc(OCOC(=O)C(C)OC)ccc1C21OC(=O)c2ccccc21 (stereo not drawn) [7O] | 30.3 | 5.73 | 25.9 | 3.31 103 | 23.6 103 | – | – | 929
CSCC(=O)OCOc1ccc2c(c1)Oc1cc(OCOC(=O)CSC)ccc1C21OC(=O)c2ccccc21 [1S] | 71.8 | 30.5 | > 50 | – | 11.4 103 | > 50 | – | –
CCCSCC(=O)OCOc1ccc2c(c1)Oc1cc(OCOC(=O)CSCCC)ccc1C21OC(=O)c2ccccc21 [3S] | 74.3 | 8.80 | > 50 | – | – | > 50 | > 50 | –
CCOCC(=O)OCOc1ccc2c(c1)Oc1cc(OCOC(=O)COCC)ccc1C21OC(=O)c2ccccc21 [2O] | 40.4 | 43.8 | > 50 | 1.08 103 | 19.4 103 | – | – | –
CC(C)OCC(=O)OCOc1ccc2c(c1)Oc1cc(OCOC(=O)COC(C)C)ccc1C21OC(=O)c2ccccc21 [6O] | 54.6 | 11.7 | 11.5 | 1.49 103 | 5.76 103 | – | – | 437
C=CCSC(C)C(=O)OCOc1ccc2c(c1)Oc1cc(OCOC(=O)C(C)SCC=C)ccc1C21OC(=O)c2ccccc21 (stereo not drawn) [12S] | > 50 | – | > 50 | – | – | > 50 | > 50 | –
O=C(COc1ccccc1)OCOc1ccc2c(c1)Oc1cc(OCOC(=O)COc3ccccc3)ccc1C21OC(=O)c2ccccc21 [11O] | > 50 | – | > 50 | – | – | > 50 | > 50 | –
CCC(SC)C(=O)OCOc1ccc2c(c1)Oc1cc(OCOC(=O)C(CC)SC)ccc1C21OC(=O)c2ccccc21 (stereo not drawn) [9S] | > 50 | – | > 50 | – | – | > 50 | > 50 | –
COCCC(=O)OCOc1ccc2c(c1)Oc1cc(OCOC(=O)CCOC)ccc1C21OC(=O)c2ccccc21 [4O] | 44.5 | 5.88 | > 50 | 1.40 103 | 8.42 103 | – | – | –
O=C(CCc1ccccc1)OCOc1ccc2c(c1)Oc1cc(OCOC(=O)CCc3ccccc3)ccc1C21OC(=O)c2ccccc21 [11C] | > 50 | – | > 50 | – | – | > 50 | > 50 | –
CSC(C)C(=O)OCOc1ccc2c(c1)Oc1cc(OCOC(=O)C(C)SC)ccc1C21OC(=O)c2ccccc21 (stereo not drawn) [7S] | 30.2 | 1.60 | > 50 | – | 7.86 103 | > 50 | – | –
CCSCC(=O)OCOc1ccc2c(c1)Oc1cc(OCOC(=O)CSCC)ccc1C21OC(=O)c2ccccc21 [2S] | > 50 | – | > 50 | – | – | > 50 | > 50 | –
CCC(C)(C)C(=O)OCOc1ccc2c(c1)Oc1cc(OCOC(=O)C(C)(C)CC)ccc1C21OC(=O)c2ccccc21 [10C] | > 50 | – | > 50 | – | – | > 50 | > 50 | –
CCSCCC(=O)OCOc1ccc2c(c1)Oc1cc(OCOC(=O)CCSCC)ccc1C21OC(=O)c2ccccc21 [5S] | 31 | 0.690 | > 50 | 0.910 103 | 4.35 103 | – | – | –
CC(C)CCC(=O)OCOc1ccc2c(c1)Oc1cc(OCOC(=O)CCC(C)C)ccc1C21OC(=O)c2ccccc21 [6C] | > 50 | – | 53.5 | – | 12.7 103 | > 50 | – | 17.6
CCOC(C)C(=O)OCOc1ccc2c(c1)Oc1cc(OCOC(=O)C(C)OCC)ccc1C21OC(=O)c2ccccc21 (stereo not drawn) [8O] | 27.7 | 3.93 | > 50 | 1.38 103 | 6.80 103 | – | – | –
O=C(CSc1ccccc1)OCOc1ccc2c(c1)Oc1cc(OCOC(=O)CSc3ccccc3)ccc1C21OC(=O)c2ccccc21 [11S] | > 50 | – | > 50 | – | – | > 50 | > 50 | –
